{
  "source": "patent US10570155B2",
  "about": "“Imidazooxazole derivative having antitumor effect, and pharmaceutical composition including same” (KOREA INSTITUTE OF SCIENCE AND TECHNOLOGY, priority 2016, dated 2020)",
  "tested_on": "SK-MEL-5",
  "experiment": "NCI cancer cell line panel screening (SRB), melanoma cell line SK-MEL-5",
  "format": "cell-based, human",
  "settings": "Homo sapiens, read-out: IC50 against melanoma cell line in vitro",
  "protocol": "According to the standard protocol (http://dtp.nci.nih.gov/dtpstandard/dwindex/index.isp) of the US National Cancer Institute (NCI) (www.dtp.nci.nih.gov), screening of a cancer cell line panel was performed. […] For a general screening experiment, cells were inoculated in 96-well microtiter plates in 100 μl at a plating density ranging from 5000 cells/well to 40,000 cells/well depending on the doubling time of individual cell lines. After cell inoculation, the microtiter plates were incubated at 37° C., 5% CO2, 95% air, and 100% relative humidity for 24 hours prior to addition of test compounds. 24 hours later, two plates of each cell line were fixed in situ with trichloroacetic acid (TCA) to measure the cell population for each cell line at the time of test compound addition (Tz). Test compounds were solubilized in dimethyl sulfoxide at 400-fold the intended final maximum test concentration, and stored frozen prior to use. At the time of compound addition, an aliquot of frozen concentrate was thawed and diluted to twice the intended final maximum test concentration with a complete medium containing 50 μg/ml of gentamicin. Additional four concentration of 10-fold or ½ log serial dilutions were made to provide a total of five compound concentrations plus control. Aliquots of 100 μl of these different compound dilutions were added to appropriate microtiter wells already containing 100 μl of medium, resulting in the required final compound concentrations.\nFollowing compound addition, the plates were incubated for additional 48 hours at 37° C., 5% CO2, 95% air, and 100% relative humidity. For adherent cells, the assay was terminated by the addition of cold TCA. Cells were fixed in situ by the gentle addition of 50 μl of cold 50% (w/v) TCA (final concentration, 10% TAC) and incubated at 4° C. for 60 minutes. The supernatant was discarded, and the plates were washed five times with tap water and air-dried. A sulforhodamine B (SRB) solution (100 μl) at 0.4% (w/v) in 1% acetic acid was added to each well, and plates were incubated at room temperature for 10 minutes. After staining, unbound dye was removed by washing five times with 1% acetic acid and the plates were air-dried. […] For suspension cells, the methodology was the same except that the assay was terminated by fixing settled cells at the bottom of the wells by gently adding 50 μl of 80% TCA (final concentration, 16% TCA). Using the seven absorbance measurements [time zero (Tz), control growth (C), and test growth rate in the presence of compound at the five concentration levels (Ti)], the growth percentage was calculated at each of the compound concentration levels. Growth inhibition percentage was calculated as follows: [(Ti−Tz)/(C−Tz)]×100 for concentrations for which Ti>/=Tz [(Ti−Tz)/Tz]×100 for concentrations for which Ti<Tz.",
  "data": [
    {"smiles": "CCN1CCN(CCNc2nccc(-c3c(-c4cccc(O)c4)nc4occn34)n2)S1(=O)=O", "note": "[2II, 2-Ethyl-5-(2-((4-(6-(3-hydroxylphenyl)imidazo[2,1-b]oxazol-5-yl)pyrimidin-2-yl)amino)ethyl)-1,2,5-thiadiazolidine 1,1-dioxide]", "values": [
      {"measurement": "IC50", "value": 6.28, "unit": "µM"}
    ]}
  ]
}
